In the NIST ThermoML archive (doi:10.1007/s10765-009-0593-3):

Assay: xn = mol fraction of the nth substance listed
Details: 101 kPa, Liquid; for speed of sound: Pulse-echo method

CCCOCC(C)OCC(C)O (stereo not given) [1-(1-methyl-2-propoxyethoxy)-2-propanol] + CCCCN(CCCC)CCCC
Details	mass density, 288.15 K [kg/m3]	mass density, 293.15 K [kg/m3]	mass density, 298.15 K [kg/m3]	mass density, 303.15 K [kg/m3]	mass density, 308.15 K [kg/m3]	speed of sound, 288.15 K [m/s]	speed of sound, 293.15 K [m/s]	speed of sound, 298.15 K [m/s]	speed of sound, 303.15 K [m/s]	speed of sound, 308.15 K [m/s]
x1 = 0.1122	794.307	790.425	786.535	782.639	778.737	1282.3	1263	1243.9	1225	1206.3
x1 = 0.1665	800.621	796.684	792.738	788.781	784.827	1282.3	1262.8	1243.7	1224.8	1206.1
x1 = 0.2084	805.602	801.628	797.652	793.661	789.668	1282.3	1262.9	1243.8	1224.9	1206.2
x1 = 0.2538	811.153	807.13	803.115	799.083	795.057	1282.4	1263.2	1244.1	1225.3	1206.5
x1 = 0.313	818.607	814.554	810.479	806.404	802.329	1282.5	1264	1244.9	1226.1	1207.4
x1 = 0.3558	824.155	820.06	815.967	811.844	807.734	1282.8	1264.8	1245.7	1227	1208.3
x1 = 0.4148	832.006	827.869	823.733	819.576	815.399	1283.3	1266.2	1247.2	1228.5	1209.8
x1 = 0.4472	836.41	832.261	828.099	823.913	819.704	1283.7	1267.1	1248.1	1229.4	1210.8
x1 = 0.5008	843.844	839.656	835.454	831.251	826.995	1284.5	1268.8	1249.8	1231.2	1212.6
x1 = 0.5451	850.136	845.938	841.706	837.473	833.167	1285.5	1270.3	1251.5	1232.8	1214.3
x1 = 0.6077	859.289	855.06	850.786	846.555	842.165	1287.2	1272.8	1254	1235.4	1217
x1 = 0.6566	866.709	862.46	858.15	853.912	849.462	1288.9	1274.9	1256.2	1237.7	1219.3
x1 = 0.7143	875.786	871.507	867.175	862.905	858.43	1291.3	1277.5	1258.8	1240.4	1222.1
x1 = 0.7514	881.851	877.544	873.195	868.91	864.43	1293.2	1279.3	1260.7	1242.3	1224.1
x1 = 0.8016	890.298	885.967	881.597	877.285	872.799	1296.1	1281.7	1263.2	1245	1226.8
x1 = 0.856	897.74	895.367	890.981	886.63	882.174	1299.9	1284.4	1266.1	1247.9	1230
x1 = 0.904	908.188	903.8	899.4	894.989	890.566	1303.7	1286.8	1268.7	1250.6	1232.8
x1 = 0.9553	917.078	912.677	908.256	903.826	899.408	1308.3	1289.5	1271.5	1253.5	1235.9
